# Assay results: paper PMC12432127, “Assessing the potential of bacterial signal peptides for radiopharmaceutical applications” (Scientific Reports, 2025)
# Several values for one entry are separate records, joined by “and”; a condition that tells them apart may be missing. Identical values can stand only once. Residues, ends and D or L forms follow the SMILES beside them. Groups on a side chain read outwards from the residue. *: point of attachment. DOTA = O=C(O)CN1CCN(CC(=O)O)CCN(CC(=O)*)CCN(CC(=O)O)CC1; Ahx = NCCCCCC(=O)O; For = O=C*
# Experiments:
# [1] = Stability in human plasma (radio-HPLC); format: in vitro ADME; conditions: human plasma, 37 °C
# Description: The radiolabelled compound (50 µL) was added to male human AB plasma (500 µL, Sigma Aldrich, USA, male AB) and incubated at 37 °C. Samples of 100 µL were taken at selected time points. The plasma proteins were precipitated with acetonitrile (-20 °C) and the precipitate was centrifuged for 1 min at 1500 rpm. The supernatant was analyzed by analytical radio-HPLC.
# FPR1 = target: T1, FPR1 (Homo sapiens, UniProt P21462); assay: High-throughput calcium imaging (FLIPR), FPR1 transfected HEK293T cells; format: cell-based; conditions: for Calicum signal (dF/F0): FPR1-HEK; for EC50: FPR1 transfected HEK293T cells, peak calcium response, read-out: EC50 Ca2+ mobilization
# T1 construct: expressed in transfected cells; host or cells: HEK293T (transient, jetPEI)
# T1 sequence (P21462 1-350): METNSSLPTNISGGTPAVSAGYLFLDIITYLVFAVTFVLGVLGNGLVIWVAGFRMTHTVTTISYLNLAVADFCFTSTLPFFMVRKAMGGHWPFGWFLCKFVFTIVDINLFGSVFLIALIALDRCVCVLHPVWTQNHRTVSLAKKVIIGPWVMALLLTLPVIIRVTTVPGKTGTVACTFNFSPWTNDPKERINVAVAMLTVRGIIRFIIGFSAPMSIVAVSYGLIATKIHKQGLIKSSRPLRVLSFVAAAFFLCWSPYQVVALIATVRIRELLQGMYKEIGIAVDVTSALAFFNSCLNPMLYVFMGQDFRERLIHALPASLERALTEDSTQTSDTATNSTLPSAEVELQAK
# Description: Cell transfection was performed approximately 24 h after seeding the cells, when they reached about 70% confluence. Transfection was carried out using jetPEI™ (Polyplus) according to the following protocol: 0.25 µg DNA was diluted in 10 µL NaCl (150 mM). 0.5 µL of jetPEI™ solution in 10 µL NaCl was mixed with the DNA solution and incubated at RT for 15–30 min. After incubation, 20 µL of the jetPEI™/DNA mixture was added dropwise to the cells, which were then placed in the cell culture incubator at 37 °C and 5% CO2. After 18 to 24 h of transfection, the medium was replaced, and 100 µL per well was added, then placed back in the incubator.
# (§1) Automated high-throughput Ca^2+ measurements using a fluorescence imaging plate reader (FLIPR, Molecular Devices) were performed. Briefly, […] were seeded in 96-well plates (~ 50,000 cells/well) one day before the experiments and incubated at 37 °C. HEK293T cells were co-transfected with the receptor or mock and the G protein Gα16 for 48 h. On the day of the experiments, the medium was removed, and the cells were loaded with a loading solution consisting of 2 µM Calbryte dye in C1 buffer (Calbryte 520AM, AAT Bioquest 20651) 50 µL per well, for at least 2 h at RT in the dark. After 2 h of loading with the fluorescent dye, the solution was removed, the plate was washed three times using an ELX50 washer (BioTek), and the intracellular release of calcium was measured using FLIPR. A Ca^2+ response was defined as an increase in the excitation ratio (340 nm/380 nm) that was at least four times higher than the mean baseline noise after bath application.
# (§2) The results are expressed as the means ± standard deviations of the number of the indicated determinations. Calcium measurement experiments were routinely performed as triplicates and averaged over at least three independent transfections. Response amplitudes (F/F0) were calculated by dividing maximal fluorescence change after ligand application by baseline fluorescence. Maximal amplitudes were set to 100%, and curves were calculated with Graph Pad Prism Version 10.1 (GraphPad Software, Boston, MA, USA). S.D. values were calculated as averages from independently obtained EC50 values using the STDEV. Data derived from experiments were analyzed by two-way ANOVA. P < 0.05 was accepted as significant.
# U87-MG cells = assay: Calcium imaging (FLIPR) in U87-MG cells; format: cell-based, human; conditions: for EC50: U87-MG cells, read-out: EC50 Ca2+ flux; for Calicum signal (dF/F0): U87 cells
# Description: as §1, §2
# [2] = Log Concentration (M) -6,5, single replicate values, listed as f-MVPIK(Ahx-DOTA-Ga)I
# [3] = Log Concentration (M) -6, single replicate values, listed as f-MVPIK(Ahx-DOTA-Ga)I
# [4] = Log Concentration (M) -7,5, single replicate values, listed as f-MVPIK(Ahx-DOTA-Ga)I
# [5] = Log Concentration (M) -7, single replicate values, listed as f-MVPIK(Ahx-DOTA-Ga)I
# [6] = Log Concentration (M) -8,5, single replicate values, listed as f-MVPIK(Ahx-DOTA-Ga)I
# [7] = Log Concentration (M) -8, single replicate values, listed as f-MVPIK(Ahx-DOTA-Ga)I
# [8] = Log Concentration (M) -9, single replicate values, listed as f-MVPIK(Ahx-DOTA-Ga)I
# [9] = Log Concentration (M) -6,5, single replicate values, listed as f-MVPIK(Ahx-DOTA-Lu)I
# [10] = Log Concentration (M) -6, single replicate values, listed as f-MVPIK(Ahx-DOTA-Lu)I
# [11] = Log Concentration (M) -7,5, single replicate values, listed as f-MVPIK(Ahx-DOTA-Lu)I
# [12] = Log Concentration (M) -7, single replicate values, listed as f-MVPIK(Ahx-DOTA-Lu)I
# [13] = Log Concentration (M) -8,5, single replicate values, listed as f-MVPIK(Ahx-DOTA-Lu)I
# [14] = Log Concentration (M) -8, single replicate values, listed as f-MVPIK(Ahx-DOTA-Lu)I
# [15] = Log Concentration (M) -9, single replicate values, listed as f-MVPIK(Ahx-DOTA-Lu)I
molecule,measurement,setting,value
"CC[C@H](C)[C@H](NC(=O)[C@H](CCCCNC(=O)CCCCCNC(=O)CN1CCN(CC(=O)O)CCN(CC(=O)O)CCN(CC(=O)O)CC1)NC(=O)[C@@H](NC(=O)[C@@H]1CCCN1C(=O)[C@@H](NC(=O)[C@H](CCSC)NC=O)C(C)C)[C@@H](C)CC)C(=O)O [[^68Ga]Ga-f-MVPIK(Ahx-DOTA)I, metal not drawn] (For-MVPIK([Ahx-DOTA])I-OH)",time stable in human plasma,[1],at least 4 h
"CC[C@H](C)[C@H](NC(=O)[C@H](CCCCNC(=O)CCCCCNC(=O)CN1CCN(CC(=O)O)CCN(CC(=O)O)CCN(CC(=O)O)CC1)NC(=O)[C@@H](NC(=O)[C@@H]1CCCN1C(=O)[C@@H](NC(=O)[C@H](CCSC)NC=O)C(C)C)[C@@H](C)CC)C(=O)O [^natGa-f-MVPIK(Ahx-DOTA)I, metal not drawn] (For-MVPIK([Ahx-DOTA])I-OH)",Calicum signal (dF/F0),FPR1; [2],"0,85 and 0,8 and 0,68"
same,Calicum signal (dF/F0),FPR1; [3],"0,85 and 0,89 and 0,8"
same,Calicum signal (dF/F0),FPR1; [4],"0,66 and 0,52 and 0,6"
same,Calicum signal (dF/F0),FPR1; [5],"0,74 and 0,87 and 0,65"
same,Calicum signal (dF/F0),FPR1; [6],"0,12 and 0,27 and 0,23"
same,Calicum signal (dF/F0),FPR1; [7],"0,28 and 0,27 and 0,3"
same,Calicum signal (dF/F0),FPR1; [8],"0,14 and 0,13 and 0,12"
same,EC50,FPR1,20 ± 1 nM
same,EC50,U87-MG cells,29 ± 2.1 nM
same,Calicum signal (dF/F0),U87-MG cells; [2],"1,2 and 1,8 and 0,91 and 1,18 and 1,37"
same,Calicum signal (dF/F0),U87-MG cells; [3],"1,22 and 1,2 (2×) and 0,96 and 1,41"
same,Calicum signal (dF/F0),U87-MG cells; [4],"0,77 and 0,6 (2×) and 0,61 and 0,7"
same,Calicum signal (dF/F0),U87-MG cells; [5],"0,98 and 0,86 and 0,8 and 1,02 and 0,95"
same,Calicum signal (dF/F0),U87-MG cells; [6],"0,4 and 0,38 and 0,33 and 0,46 and 0,35"
same,Calicum signal (dF/F0),U87-MG cells; [7],"0,45 and 0,46 (2×) and 0,65 and 0,58"
same,Calicum signal (dF/F0),"U87-MG cells; Log Concentration (M) -9,5, single replicate values, listed as f-MVPIK(Ahx-DOTA-Ga)I","0,04 and 0,02 (3×) and 0,01"
same,Calicum signal (dF/F0),U87-MG cells; [8],"0,11 (2×) and 0,17 and 0,14 and 0,13"
"CC[C@H](C)[C@H](NC(=O)[C@H](CCCCNC(=O)CCCCCNC(=O)CN1CCN(CC(=O)O)CCN(CC(=O)O)CCN(CC(=O)O)CC1)NC(=O)[C@@H](NC(=O)[C@@H]1CCCN1C(=O)[C@@H](NC(=O)[C@H](CCSC)NC=O)C(C)C)[C@@H](C)CC)C(=O)O [^natLu-f-MVPIK(Ahx-DOTA)I, metal not drawn] (For-MVPIK([Ahx-DOTA])I-OH)",Calicum signal (dF/F0),FPR1; [9],"0,91 and 0,74 and 0,82"
same,Calicum signal (dF/F0),FPR1; [10],"0,93 and 0,87 and 0,9"
same,Calicum signal (dF/F0),FPR1; [11],"0,7 and 0,5 and 0,6"
same,Calicum signal (dF/F0),FPR1; [12],"0,89 and 0,6 and 0,71"
same,Calicum signal (dF/F0),FPR1; [13],"0,31 and 0,28 and 0,34"
same,Calicum signal (dF/F0),FPR1; [14],"0,58 and 0,41 and 0,43"
same,Calicum signal (dF/F0),FPR1; [15],"0,13 and 0,23 and 0,2"
same,EC50,FPR1,12 ± 1 nM
same,EC50,U87-MG cells,10 ± 0.9 nM
same,Calicum signal (dF/F0),U87-MG cells; [9],"1,2 and 1,34 and 1 and 1,14 and 0,83"
same,Calicum signal (dF/F0),U87-MG cells; [10],"1,39 and 1,4 and 1,3 and 1,55 and 1,9"
same,Calicum signal (dF/F0),U87-MG cells; [11],"0,86 and 0,93 and 0,8 and 0,82 and 0,85"
same,Calicum signal (dF/F0),U87-MG cells; [12],"0,98 (2×) and 0,94 and 1,8 and 0,96"
same,Calicum signal (dF/F0),U87-MG cells; [13],"0,62 (3×) and 0,55 and 0,58"
same,Calicum signal (dF/F0),U87-MG cells; [14],"0,71 and 0,66 and 0,58 and 0,5 and 0,63"
same,Calicum signal (dF/F0),"U87-MG cells; Log Concentration (M) -9,5, single replicate values, listed as f-MVPIK(Ahx-DOTA-Lu)I","0,06 (2×) and 0,07 and 0,09 and 0,01"
same,Calicum signal (dF/F0),U87-MG cells; [15],"0,12 (2×) and 0,21 and 0,14 and 0,18"
CC[C@H](C)[C@H](NC(=O)[C@H](CCCCNC(=O)CCCCCNC(=O)CN1CCN(CC(=O)O)CCN(CC(=O)O)CCN(CC(=O)O)CC1)NC(=O)[C@@H](NC(=O)[C@@H]1CCCN1C(=O)[C@@H](NC(=O)[C@H](CCSC)NC=O)C(C)C)[C@@H](C)CC)C(=O)O [f-MVPIK(Ahx-DOTA)I] (For-MVPIK([Ahx-DOTA])I-OH),EC50,FPR1,23 ± 2 nM
same,EC50,U87-MG cells,5.6 ± 0.9 nM
f-MLFKYS,sensitivity to FPR1 compared with FPR2 (calcium),FPR1; FPR1 vs FPR2,very similar sensitivity to FPR1 and FPR2
